Read-outs that look alike come from different tables or passages of the source.
Test: Tigecycline plasma PK and % F after PO enteric-coated capsule in dogs
Type: in vivo, Beagle dogs
Details: for concentration at 0 min: Time (min) 0.0; for concentration at 0.3 min: Time (min) 0.3; for concentration at 0.7 min: Time (min) 0.7; for concentration at 24 min: Time (min) 24.0; for Predicted AUC(0-t), % Difference / Predicted Mean Cmax, % Difference: observed vs predicted from 15 mg results; for Predicted AUC(0-t) / Predicted Mean Cmax: predicted from 15 mg results
Method: Adult beagle dogs weighing approximately 9 to 15 kg were used in the study. […] Room temperature was set to be maintained between approximately 20±5° C. Relative humidity was monitored but not controlled.
TEKLAD™ Certified Canine Diet was provided once daily in amounts (˜400 grams) appropriate for the size and age of the animals. Tap water was available ad libitum via automatic watering device or water bowls.
Oral dosing of enteric-coated capsules was accomplished by administering them to the back of the dog's mouth, followed by a chase of 5 mL water to ensure swallowing.
Water was provided ad libitum. […] Subsequently, each group of animals was dosed based on the protocol, i.e. either IV, or PO by capsule.
Minocycline (VWR international) was used as an internal standard. Sample processing/clean-up of plasma samples was carried out offline by protein precipitation with acidified acetonitrile using 0.5% trifluoroacetic acid (TFA).
The HPLC system consisted of Shimadzu SIL-HTc HPLC system equipped with dual Shimadzu LC-10ADvp isopumps, a Shimadzu CTO-10ASvp column temperature controller and a Shimadzu SPD-10Avp variable wavelength detector. […] Mobile phase A consisted of 23 mM phosphate buffer pH 2.5 with 4 mM 1-octanesulfonic acid, while mobile phase B consisting of 90% acetonitrile, 10% water, with 2 mM 1-octanesulfonic acid. […] The total runtime was 18 minutes per sample. The mobile phase flow rate was 1.2 mL/min. Detection was performed using the SPD-10Avp variable wavelength detector set at 350 nm, with a sensitivity of 0.001 aufs.
The samples were then centrifuged under refrigeration at 13 k rpm for 5 minutes. The supernatant was taken and the liquid removed to dryness under nitrogen in a turbovap. The dried extract was reconstituted in 60 μL of mobile phase A and the suspension was further centrifuged at 5 k rpm for 5 minutes to pellet any insoluble matter. The resulting supernatant was then injected onto the LC.
The unknown concentration in dog plasma samples was determined by interpolation of the peak area ratios of analyte:internal standard versus the ratio of their nominal concentrations into the regression line obtained from calibration standards spiked in pooled dog plasma. No regression weighting was used for the calculations. […] The calibration curve covered the range of 0.05 μg/mL to 5 μg/mL. […]
The capsules were enterically coated using a standard preclinical protocol to 10% weight gain. Two studies were conducted.

[1] = female, beagle, dog, plasma, po, 45 mg, Tigecycline Plasma Concentration, PO 45 mg enteric-coated capsule with 500 mg CA and 100 mg LLC, SC430, individual dogs
[2] = female, beagle, dog, plasma, po, 45 mg, Tigecycline Plasma Concentration, PO 45 mg enteric-coated capsule with 500 mg CA and 100 mg LLC, SC430, mean

CN(C)c1cc(NC(=O)CNC(C)(C)C)c(O)c2c1C[C@H]1C[C@H]3[C@H](N(C)C)C(O)=C(C(N)=O)C(=O)[C@@]3(O)C(O)=C1C2=O [Tigecycline] showed a Tmax (female, beagle, dog, plasma, po, 45 mg, 45 mg Formulated (500 mg CA, 100 mg LLC) enteric coated capsule, Study 2 (SC430), mean (% CV), read-out: Tmax (converted)) of 1.67 h, an AUC(0-t) (female, beagle, dog, plasma, po, 45 mg, PO 45 mg enteric-coated capsule with 500 mg CA and 100 mg LLC (SC430), read-out: AUC(0-t), mean) of 574 ng·h/mL and a Cmax (female, beagle, dog, plasma, po, 45 mg, PO 45 mg enteric-coated capsule with 500 mg CA and 100 mg LLC (SC430), read-out: Cmax, mean) of 177 ng/mL. For the same molecule, the bioavailability (female, beagle, dog, plasma, po, 45 mg, PO 45 mg enteric-coated capsule with 500 mg CA and 100 mg LLC (SC430), read-out: absolute % F, mean) was 15.5%, the AUC(0-t) (female, beagle, dog, plasma, po, 45 mg, PO 45 mg enteric-coated capsule with 500 mg CA and 100 mg LLC ([…]), SC430, mean, read-out: AUC(0-t)) was 574 ng·h/mL and the Cmax (female, beagle, dog, plasma, po, 45 mg, PO 45 mg enteric-coated capsule with 500 mg CA and 100 mg LLC ([…]), SC430, mean, read-out: Cmax) was 177 ng/mL. The Tmax (female, beagle, dog, plasma, po, 45 mg, PO 45 mg enteric-coated capsule with 500 mg CA and 100 mg LLC ([…]), SC430, mean, read-out: Tmax (converted)) was 1.67 h, the bioavailability (female, beagle, dog, plasma, po, 45 mg, PO 45 mg enteric-coated capsule with 500 mg CA and 100 mg LLC, SC430, calculated from IV PK data of SC431, mean, read-out: % F) was 15.5% and the bioavailability (female, beagle, dog, plasma, po, 45 mg, Study 2 (SC430), 45 mg Formulated enteric coated capsule (500 mg citric acid, 100 mg LLC), oral, dogs, N=5, mean (% CV), based on that study's IV arm, read-out: % F) was 15.5%. For the same molecule, the Tmax (female, beagle, dog, plasma, po, 45 mg, Study 2 (SC430), 45 mg Formulated enteric coated capsule (500 mg citric acid, 100 mg LLC), oral, dogs, N=5, mean (% CV), read-out: Tmax (converted)) was 1.67 h, the AUC(0-t) (female, beagle, dog, plasma, po, 45 mg, Study 2 (SC430), 45 mg Formulated enteric coated capsule (500 mg citric acid, 100 mg LLC), oral, dogs, N=5, mean (% CV), sampling 24 h, read-out: AUC(0-t)) was 574 ng·h/mL and the Cmax (female, beagle, dog, plasma, po, 45 mg, Study 2 (SC430), 45 mg Formulated enteric coated capsule (500 mg citric acid, 100 mg LLC), oral, dogs, N=5, mean (% CV), sampling 24 h, read-out: Cmax) was 177 ng/mL. The concentration at 0 min [1] was 0 ng/mL, the concentration at 0 min [2] was 0 ng/mL and the concentration at 0.3 min [1] was 0 ng/mL. It also gave a concentration at 0.3 min [2] of 0 ng/mL, a concentration at 0.7 min [1] of 0 ng/mL and a concentration at 0.7 min [2] of 0 ng/mL. The concentration at 1 min (female, beagle, dog, plasma, po, 45 mg, Tigecycline Plasma Concentration, Time (min) 1.0, PO 45 mg enteric-coated capsule with 500 mg CA and 100 mg LLC, SC430, mean) was 56.4 ng/mL, the concentration at […] (female, beagle, dog, plasma, po, 45 mg, Tigecycline Plasma Concentration, Time (min) 1.3, PO 45 mg enteric-coated capsule with 500 mg CA and 100 mg LLC, SC430, mean) was 58.3 ng/mL and the concentration at […] (female, beagle, dog, plasma, po, 45 mg, Tigecycline Plasma Concentration, Time (min) 1.7, PO 45 mg enteric-coated capsule with 500 mg CA and 100 mg LLC, SC430, mean) was 101 ng/mL. It also gave a concentration at 2 min (female, beagle, dog, plasma, po, 45 mg, Tigecycline Plasma Concentration, Time (min) 2.0, PO 45 mg enteric-coated capsule with 500 mg CA and 100 mg LLC, SC430, mean) of 144 ng/mL, a concentration at […] (female, beagle, dog, plasma, po, 45 mg, Tigecycline Plasma Concentration, Time (min) 2.3, PO 45 mg enteric-coated capsule with 500 mg CA and 100 mg LLC, SC430, mean) of 108 ng/mL and a concentration at […] (female, beagle, dog, plasma, po, 45 mg, Tigecycline Plasma Concentration, Time (min) 2.7, PO 45 mg enteric-coated capsule with 500 mg CA and 100 mg LLC, SC430, mean) of 98.6 ng/mL. For the same molecule, the concentration at 3 min (female, beagle, dog, plasma, po, 45 mg, Tigecycline Plasma Concentration, Time (min) 3.0, PO 45 mg enteric-coated capsule with 500 mg CA and 100 mg LLC, SC430, mean) was 76.5 ng/mL, the concentration at […] (female, beagle, dog, plasma, po, 45 mg, Tigecycline Plasma Concentration, Time (min) 3.3, PO 45 mg enteric-coated capsule with 500 mg CA and 100 mg LLC, SC430, mean) was 68.7 ng/mL and the concentration at […] (female, beagle, dog, plasma, po, 45 mg, Tigecycline Plasma Concentration, Time (min) 3.7, PO 45 mg enteric-coated capsule with 500 mg CA and 100 mg LLC, SC430, mean) was 62 ng/mL. The concentration at 4 min (female, beagle, dog, plasma, po, 45 mg, Tigecycline Plasma Concentration, Time (min) 4.0, PO 45 mg enteric-coated capsule with 500 mg CA and 100 mg LLC, SC430, mean) was 51.7 ng/mL, the concentration at […] (female, beagle, dog, plasma, po, 45 mg, Tigecycline Plasma Concentration, Time (min) 4.5, PO 45 mg enteric-coated capsule with 500 mg CA and 100 mg LLC, SC430, mean) was 48.9 ng/mL and the concentration at 5 min (female, beagle, dog, plasma, po, 45 mg, Tigecycline Plasma Concentration, Time (min) 5.0, PO 45 mg enteric-coated capsule with 500 mg CA and 100 mg LLC, SC430, mean) was 50.6 ng/mL. It also gave a concentration at […] (female, beagle, dog, plasma, po, 45 mg, Tigecycline Plasma Concentration, Time (min) 5.5, PO 45 mg enteric-coated capsule with 500 mg CA and 100 mg LLC, SC430, mean) of 42.5 ng/mL, a concentration at 6 min (female, beagle, dog, plasma, po, 45 mg, Tigecycline Plasma Concentration, Time (min) 6.0, PO 45 mg enteric-coated capsule with 500 mg CA and 100 mg LLC, SC430, mean) of 35.2 ng/mL and a concentration at 8 min (female, beagle, dog, plasma, po, 45 mg, Tigecycline Plasma Concentration, Time (min) 8.0, PO 45 mg enteric-coated capsule with 500 mg CA and 100 mg LLC, SC430, mean) of 22.9 ng/mL. The concentration at 10 min (female, beagle, dog, plasma, po, 45 mg, Tigecycline Plasma Concentration, Time (min) 10.0, PO 45 mg enteric-coated capsule with 500 mg CA and 100 mg LLC, SC430, mean) was 16.8 ng/mL, the concentration at 24 min [1] was 0 ng/mL and the concentration at 24 min [2] was 0 ng/mL. The Cmax (female, beagle, dog, plasma, po, 45 mg, target dose 45 mg, enterically coated capsule, read-out: Observed Mean Cmax) was 177 ng/mL, the AUC(0-t) (female, beagle, dog, plasma, po, 45 mg, target dose 45 mg, enterically coated capsule, time scale adjusted to 4 hours, read-out: Observed AUC(0-t)) was 266 ng·h/mL and the Tmax (female, beagle, dog, plasma, po, all studied oral formulations, read-out: Tmax, mean (converted)) was roughly 1.67 h. For the same molecule, the “Predicted AUC(0-t), % Difference” value (target dose 30 mg) was −23.9%, the “Predicted Mean Cmax, % Difference” value (target dose 30 mg) was −24.8% and the “Predicted AUC(0-t)” value (target dose 30 mg) was 265 ng·h/mL. The “Predicted Mean Cmax” value (target dose 30 mg) was 151 ng/mL, the “Predicted AUC(0-t), % Difference” value (target dose 45 mg) was −49.4% and the “Predicted Mean Cmax, % Difference” value (target dose 45 mg) was −28.0%. The “Predicted AUC(0-t)” value (target dose 45 mg) was 398 ng·h/mL and the “Predicted Mean Cmax” value (target dose 45 mg) was 226 ng/mL.

— patent US9526785B2, “Pharmaceuticals for oral delivery” (Enteris BioPharma, Inc., priority 2013, dated 2016)
